In PubChem BioAssay (NCI):
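In this assay, cells in 96-well plates receive the compound at five concentrations for 48 hours. Endpoints are linearly interpolated between the surrounding concentrations. TGI: total growth inhibition.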

What was measured:
Assay in all cases: growth of human tumour cells (NCI), 48 h
[1] = system: ACHN renal
[2] = system: DU-145 prostate
[3] = system: HOP-62 NSCLC
[4] = system: HS 578T breast
[5] = system: K-562 leukemia
[6] = system: KM12 colon
[7] = system: M14 melanoma
[8] = system: NCI-H226 lung
[9] = system: PC-3 prostate
[10] = system: RPMI-8226 leukemia
[11] = system: SF-268 CNS
[12] = system: SF-539 CNS
[13] = system: SK-OV-3 ovarian
[14] = system: SNB-19 CNS
[15] = system: SR leukemia

| SMILES | TGI [1] [µM] | TGI [2] [µM] | TGI [3] [µM] | TGI [4] [µM] | TGI [5] [µM] | TGI [6] [µM] | TGI [7] [µM] | TGI [8] [µM] | TGI [9] [µM] | TGI [10] [µM] | TGI [11] [µM] | TGI [12] [µM] | TGI [13] [µM] | TGI [14] [µM] | TGI [15] [µM] |
| --- | --- | --- | --- | --- | --- | --- | --- | --- | --- | --- | --- | --- | --- | --- | --- |
| O=C1C(NS(=O)(=O)c2ccccc2)=C(n2ccnc2)C(=O)c2ccccc21 | > 100 | > 100 | > 100 | > 100 | > 100 | > 100 | > 100 | > 100 | > 100 | > 100 | > 100 | > 100 | > 100 | > 100 | > 100 |
| CC1=C[C@H](C[C@]2(C)c3c(c4c(C)cccc4oc3=O)O[C@@H]2C)OC1=O | > 100 | > 100 | > 100 | > 100 | > 100 | > 100 | > 100 | > 100 | > 100 | 18.1 | 63.4 | > 100 | > 100 | > 100 | 61.3 |
| COc1cc2ncnc(Nc3cccc(Br)c3)c2cc1OC | > 100 | 34.2 | > 41.2 | 53.2 | > 55.5 | 16.1 | 20.6 | 18.5 | > 37.2 | > 100 | > 89.6 | 17 | 19 | > 77.4 | > 31.6 |
| CCOP(=O)(OCC)/C(C#N)=C/c1nc[nH]c1C | > 100 | > 100 | > 100 | > 100 | > 100 | > 100 | > 100 | > 100 | > 100 | > 100 | > 100 | > 100 | > 100 | > 100 | > 100 |
| Cc1ccc(N=NC(=Nc2ccc(F)cc2)c2ccc(N(CCC#N)CCC#N)cc2)cc1 | > 100 | > 100 | > 100 | > 100 | > 100 | > 100 | > 100 | > 100 | > 100 | > 100 | > 100 | > 100 | > 100 | > 100 | > 100 |
| COc1nc2ncc([C@@H](OC(C)=O)[C@@H](COC(C)=O)OC(C)=O)nc2c(=O)n1C | > 100 | > 100 | > 100 | > 100 | > 100 | > 100 | > 100 | > 100 | > 100 | > 100 | > 100 | > 100 | > 100 | > 100 | > 100 |
| CCN(CC)P(=O)(c1ccc2c(c1)OCCOCCOCCOCCO2)N(CC)CC | > 100 | > 100 | > 100 | > 100 | > 100 | > 100 | > 100 | > 100 | > 100 | > 100 | > 100 | > 100 | > 100 | > 100 | > 100 |
